Test results taken from patent publication US20190284168A1, “PYRAZOLE DERIVATIES AS SGC STIMULATORS” (IRONWOOD PHARMACEUTICALS, INC., priority 2014, published 2019).

Tests used:
[1] = molecular target: T1, soluble guanylate cyclase (sGC) (Homo sapiens, UniProt Q02108+Q02153); test: sGC-HEK-cGMP assay with LC/MS detection; format: cell-based; conditions: HEK293 whole cells, LC/MS detection of cGMP, 10 μM DETA-NONOate; 50% of high control response (30 μM Compound Y); read-out: Absolute EC50 (nM)- binned (~)
T1 construct: endogenously expressing soluble guanylate cyclase (sGC); endogenous in cells; host or cells: HEK293
T1 sequence (Q02153 1-619): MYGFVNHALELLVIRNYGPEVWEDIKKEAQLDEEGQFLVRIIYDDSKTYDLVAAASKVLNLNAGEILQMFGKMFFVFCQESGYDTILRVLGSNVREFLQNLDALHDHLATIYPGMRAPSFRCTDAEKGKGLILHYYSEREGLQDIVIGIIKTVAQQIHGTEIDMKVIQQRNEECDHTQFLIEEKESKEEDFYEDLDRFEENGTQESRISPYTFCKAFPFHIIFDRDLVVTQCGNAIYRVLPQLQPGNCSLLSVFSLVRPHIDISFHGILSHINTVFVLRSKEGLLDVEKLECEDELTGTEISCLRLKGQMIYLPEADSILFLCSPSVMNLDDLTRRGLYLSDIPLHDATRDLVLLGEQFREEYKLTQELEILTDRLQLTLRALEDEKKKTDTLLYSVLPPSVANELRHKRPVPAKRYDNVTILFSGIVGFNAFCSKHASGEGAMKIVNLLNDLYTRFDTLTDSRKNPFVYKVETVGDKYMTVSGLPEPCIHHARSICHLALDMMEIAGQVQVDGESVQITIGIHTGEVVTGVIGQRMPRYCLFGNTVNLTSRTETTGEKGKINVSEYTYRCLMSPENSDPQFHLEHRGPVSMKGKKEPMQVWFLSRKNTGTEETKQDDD
T1 sequence (Q02108 1-690): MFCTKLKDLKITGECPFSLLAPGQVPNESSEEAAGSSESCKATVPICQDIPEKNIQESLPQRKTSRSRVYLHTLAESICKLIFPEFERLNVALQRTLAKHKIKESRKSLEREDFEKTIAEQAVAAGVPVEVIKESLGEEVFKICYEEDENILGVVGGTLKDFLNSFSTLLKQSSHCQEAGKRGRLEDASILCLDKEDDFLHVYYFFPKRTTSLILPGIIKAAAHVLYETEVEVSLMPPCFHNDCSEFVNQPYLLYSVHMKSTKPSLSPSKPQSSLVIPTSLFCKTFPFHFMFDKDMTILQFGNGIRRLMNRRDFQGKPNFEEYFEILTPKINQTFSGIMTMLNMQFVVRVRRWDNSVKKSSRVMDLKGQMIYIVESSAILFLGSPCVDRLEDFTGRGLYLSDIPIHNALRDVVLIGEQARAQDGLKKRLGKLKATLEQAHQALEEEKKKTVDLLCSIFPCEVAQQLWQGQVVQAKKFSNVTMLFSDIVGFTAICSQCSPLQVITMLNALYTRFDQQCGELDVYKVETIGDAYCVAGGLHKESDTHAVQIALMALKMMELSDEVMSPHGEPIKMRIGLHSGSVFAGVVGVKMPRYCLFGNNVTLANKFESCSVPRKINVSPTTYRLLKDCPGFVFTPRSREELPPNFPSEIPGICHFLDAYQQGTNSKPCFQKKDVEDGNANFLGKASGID

[2] = molecular target: T2, human recombinant soluble guanylate cyclase enzyme α1β1 (Homo sapiens, UniProt Q02108+Q02153); test: Purified human recombinant sGC α1β1 enzyme assay in the presence of DETA-NONOate (cGMP HTRF); format: biochemical; conditions: 30 uM DETA NONOate; 50% of maximal response of 30 uM Compound Y; read-out: sGC_Enz_HTRF_a1b1 EC50/IC50 Abs (Norm) (nM) Binned
T2 construct: purchased Enzo Life Sciences ALX-201-177
T2 sequence (Q02108 1-690): T1 sequence (Q02108 1-690)
T2 sequence (Q02153 1-619): T1 sequence (Q02153 1-619)
Protocol: Purified human recombinant soluble guanylate cyclase enzyme α1β1 (h sGC) obtained from Enzo Life Sciences (P/N: ALX-201-177) was used to evaluate the activity of test compounds. The assay reactions contained 0.1 M Tris (pH 8.0), 0.5 mg/mL BSA, 2 mM DTT, 4 mM MgCl2, 30 uM DETA NONOate (Enzo Life Science P/N: ALX-430-014), and 12.5 ng/ml human soluble guanylate cyclase enzyme. […] Guanosine 5'-triphosphate (Sigma-Aldrich P/N: […]) was added to a final concentration of 300 μM and enzyme reactions were incubated (100 μL, 384-well plate format) at 37° C. for 20 minutes. The controls contained 3% DMSO (low control), or 30 uM of Compound Y (high control). After the 20 minute incubation, the reaction was stopped with the addition of 100 μL of ice cold 20% acetic acid. cGMP concentrations in all samples were determined using the cGMP HTRF (Cisbio P/N: 62GM2PEC) assay per manufacturer's instructions. A cGMP standard curve was fit using a 4-parameter fit (log(inhibitor) vs. response-variable slope) using GraphPad Prism Software v.6. Samples were diluted appropriately to ensure that values fell within the linear range of the standard curve. Data were fit using a 4-parameter fit (log(agonist) vs. response-variable slope) using GraphPad Prism Software v.6. The EC50 was interpolated from the curve fit and is defined as the concentration at which the compound elicits 50% of the maximal response of the 30 uM of Compound Y, the high control compound.

[3] = system: lambs with acute pulmonary hypertension; conditions: cited from earlier work; for effect on mean arterial pressure / pulmonary vasodilation / transpulmonary cGMP release / systemic arterial oxygenation: inhaled microparticles, awake lambs; for effect on mean arterial pressure / pulmonary vasodilation / transpulmonary cGMP release: U-46619 infusion
sGC enzyme = molecular target: T3, sGC enzyme (Homo sapiens, UniProt Q02108+Q02153); test: cGMP GloSensor cell-based assay, 384-well format; conditions: read-out: sGC_HEK_GloSensor EC50/IC50 Abs (Norm) (nM) Binned (~)
T3 construct: host or cells: HEK293 cells expressing GloSensor 40F cGMP
T3 sequence (Q02153 1-619): T1 sequence (Q02153 1-619)
T3 sequence (Q02108 1-690): T1 sequence (Q02108 1-690)
From the text: Human embryonic kidney cells (HEK293) cells expressing GloSensor™ 40F cGMP (Part No: CS182801, Promega) were used to evaluate the activity of test compounds. The luminescent biosensors (engineered luciferase) that were incorporated into these cells detect cGMP formed by the compounds stimulating the sGC enzyme and emit luminescence.
cGMP GloSensor cells were maintained in Dulbecco's Modification of Eagle's Medium (DMEM) supplemented with fetal bovine serum (FBS) (10% final) and hygromycine (200 ug/ml). The day before assay, cells were plated in DMEM with 10% FBS in a 50 μL volume at a density of 1.5×10^4 cells/well in a poly-D-lysine coated 384-well flat white-bottom plate (Corning Cat No 35661). Cells were incubated overnight at 37° C. in a humidified chamber with 5% CO2. The next day, medium was removed and cells were replaced with 40 ul/well of GloSensor™, 2 mM (Promega Cat No E1291). Cells were treated for 90 minutes at 25° C. to allow the substrate to equilibrate in the cells. Test compounds and Diethylenetriamine NONOate (DETA-NONOate) was diluted to 3 mM (20×) in serum-free CO2 independent medium and serially diluted at 4× dilutions to create 5× dose curve from which 10 ul was added to the wells (x μM concentration for test compound solution and 10 μM concentration for DETA-NONOate solution; wherein x is one of the following final concentrations). • 30000 nM • 7500 nM • 1875 nM • 468.75 nM • 117.19 nM • 29.29 nM • 7.32 nM • 1.83 nM • 0.46 nM • 0.114 nM • 0.029 nM
For the kinetics studies, luminescense was measured right away for 0.2 sec per well with Envision (Perkin Elmer model No). For endpoint SAR screening, data were collected after 55 min incubation at room temperature.
Data analysis was carried out as indicated above in Example 2A.

EC50 [1]	EC50 [2]	Compound	further results
> 1000 nM	≤ 1000 nM	CS(=O)(=O)C1(C(=O)Nc2ccnc(-c3cc(-c4ccon4)n(Cc4ccccc4F)n3)n2)CC1 [Compound 50]	–
–	–	O=C(O)CCCCN(CCc1ccccc1OCc1ccc(CCc2ccccc2)cc1)Cc1ccc(C(=O)O)cc1 [BAY 58-2667]	pulmonary vasodilation and transpulmonary cGMP release after treatment with ODQ ([3]; inhaled microparticles after ODQ): greatly enhanced; effect on mean arterial pressure [3]: without significant effect; pulmonary vasodilation [3]: dose dependent pulmonary vasodilation; transpulmonary cGMP release [3]: increased; systemic arterial oxygenation [3]: increased
> 30000 nM	≤ 1000 nM	O=S1(=O)Cc2cnc(-c3cc(-c4ccon4)n(Cc4ccccc4F)n3)nc2C1 [Compound 3]	–
> 1000 nM	≤ 1000 nM	CC(=O)c1cc(-c2ncc(F)c(N3CCS(=O)(=O)CC3)n2)nn1Cc1ccccc1F [Compound 78]	–
> 1000 nM	≤ 1000 nM	O=C(O)C1Cn2c(nnc2C(F)(F)F)CN1c1nc(-c2cc(-c3ccon3)n(Cc3ccccc3F)n2)ncc1F (centres unmarked) [Compound 62]	–
> 1000 nM	≤ 1000 nM	CC(=O)c1cc(-c2ncc(F)c(NCC(=O)O)n2)nn1Cc1ccccc1F [Compound 86]	–
> 1000 nM	≤ 1000 nM	Fc1ccccc1Cn1nc(-c2ncc(F)c(Nc3nnc(C(F)(F)F)s3)n2)cc1-c1ccon1 [Compound 11]	–
–	–	O=c1onc2cnc3ccccc3n12 [ODQ, 1H-[1,2,4]oxadiazolo[4,3-a]quinoxalin-1-one]	pulmonary vasodilator effect of iNO ([3]; intravenous administration): markedly reduced
> 1000 nM	≤ 1000 nM	NC(=O)C(=O)Nc1ccnc(-c2cc(-c3ccon3)n(Cc3ccccc3F)n2)n1 [Compound 4]	–
–	–	Nc1nc(-c2nn(Cc3ccccc3F)c3ncccc23)ncc1C1CC1 [BAY 41-2272]	effect on mean arterial pressure [3]: without significant effect; pulmonary vasodilation [3]: dose dependent pulmonary vasodilation; transpulmonary cGMP release [3]: increased
100 to 1000 nM	100 to 1000 nM	O=C(CCl)NCC(=O)Nc1ccnc(-c2cc(-c3ccon3)n(Cc3ccccc3F)n2)n1 [Compound 32]	–
> 1000 nM	≤ 1000 nM	O=C(O)Cc1c[nH]n(-c2nc(-c3cc(-c4ccon4)n(Cc4ccccc4F)n3)ncc2F)c1=O [Compound 39]	–
> 1000 nM	≤ 1000 nM	O=C(Nc1ccnc(-c2cc(-c3ccon3)n(Cc3ccccc3F)n2)n1)c1cc(O)no1 [Compound 27]	–
> 1000 nM	≤ 1000 nM	Cn1c(=O)c(CC(N)=O)cn1-c1nc(-c2cc(-c3ccon3)n(Cc3ccccc3F)n2)ncc1F [Compound 56]	–
> 30000 nM	≤ 1000 nM	Fc1ccccc1Cn1nc(-c2ncc(N3CCOCC3)cn2)cc1-c1ccon1 [Compound 37]	–
–	–	Nc1nc(-c2nn(Cc3ccccc3F)c3ncccc23)nc(N)c1N1CCOCC1 [BAY 41-8543]	magnitude and duration of pulmonary vasodilation induced by iNO ([3]; after inhaling microparticles, combined with iNO): augmented; effect on mean arterial pressure [3]: without significant effect; pulmonary vasodilation [3]: dose dependent pulmonary vasodilation; transpulmonary cGMP release [3]: increased; systemic arterial oxygenation [3]: increased
< 100 nM	100 to 1000 nM	Oc1nnc2n1CCN(c1nc(-c3cc(-c4ccon4)n(Cc4ccccc4F)n3)ncc1F)C2 [Compound 44]	–
> 30000 nM	≤ 1000 nM	NC(=O)CC(=O)Nc1ccnc(-c2cc(-c3ccon3)n(Cc3ccccc3F)n2)n1 [Compound 17]	–
100 to 1000 nM	≤ 1000 nM	O=C(O)Cc1cn(-c2nc(-c3cc(-c4ccon4)n(Cc4ccccc4F)n3)ncc2F)[nH]c1=O [Compound 38]	–
–	–	OCCN1CCN(c2nc(-c3cc(-c4ccon4)n(Cc4ccccc4F)n3)ncc2F)CC1 [Compound 170, 2-(4-(5-fluoro-2-(1-(2-fluorobenzyl)-5-(isoxazol-3-yl)-1H-pyrazol-3-yl)pyrimidin-4-yl)piperazin-1-yl)ethanol]	EC50 (sGC enzyme): < 100 nM
100 to 1000 nM	100 to 1000 nM	C[C@](N)(CNc1nc(-c2cc(-c3ccon3)n(Cc3ccccc3F)n2)ncc1F)C(F)(F)F [Compound 108]	–
–	–	Fc1cnc(-c2cc(-c3ccon3)n(Cc3cccc(F)c3F)n2)nc1 [Compound 142]	EC50 (sGC enzyme): > 1000 nM
–	–	O[C@@H]1CN(c2nc(-c3cc(-c4ccon4)n(Cc4ccccc4F)n3)ncc2F)C[C@@H]1O [Compound 169, cis-1-(5-fluoro-2-(1-(2-fluorobenzyl)-5-(isoxazol-3-yl)-1H-pyrazol-3-yl)pyrimidin-4-yl)pyrrolidine-3,4-diol]	EC50 (sGC enzyme): < 100 nM
–	–	Nc1nc(-c2cc(-c3ccon3)n(Cc3ncccc3F)n2)ncc1F [Compound 146]	EC50 (sGC enzyme): 100 to 1000 nM
> 1000 nM	≤ 1000 nM	O=C(Cc1c[nH]nc1O)Nc1ccnc(-c2cc(-c3ccon3)n(Cc3ccccc3F)n2)n1 [Compound 45]	–
–	–	Cn1nccc1Cn1nc(-c2ncc(F)c(O)n2)cc1-c1ccon1 [Compound 212]	EC50 (sGC enzyme): > 1000 nM
–	–	Cn1cc(Cn2nc(-c3ncc(F)c(O)n3)cc2-c2ccon2)cn1 [Compound 186]	EC50 (sGC enzyme): > 1000 nM
> 1000 nM	≤ 1000 nM	CC(=O)c1cc(-c2ncc(F)c(O)n2)nn1Cc1cccc(F)c1F [Compound 83]	–
